Counter-ions that a name gives are not always drawn.
Tested on: p62-dependent mitophagy
Assay: Luciferase-p62 assay (Fluc-p62 clearance) in mouse embryonic fibroblasts
Assay type: cell-based
Settings: for Mean Luminescence: Luciferase-p62 assay, mouse embryonic fibroblasts (MEFs), compounds at 10 μM; for % Activity over baseline: percentage of Luciferase-p62 clearance relative to baseline (mean luminescence in the absence of doxycycline induction); for % Activity over baseline / % Activity relative to Rapamycin: MEFs, 10 μM; for % Activity relative to Rapamycin: percentage of activity relative to rapamycin tested in the same experiment at the same concentration
In short: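 MEFs with doxycycline-inducible Fluc-p62; after induction, doxycycline removed and cells treated 48 h with compounds at 10 μM. Fluc-p62 clearance, taken as mitophagy, read by ONE-Glo+Tox luciferase with viability. Vehicle (DMSO) as negative control; activity also expressed relative to rapamycin.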

COc1c(C)c2c(c(O)c1C/C=C(\C)CCC(=O)OCCN1CCOCC1)C(=O)OC2 [Mycophenolate Mofetil]
Mean Luminescence: 594.21
% Activity over baseline: 63.28%
% Activity relative to Rapamycin: 114.01%

COc1c(C)c2c(c(O)c1C/C=C(\C)CCC(=O)O)C(=O)OC2 [Mycophenolic acid]
Mean Luminescence: 821.72
% Activity over baseline: 49.22%
% Activity relative to Rapamycin: 88.68%

CC(=O)NCCc1c[nH]c2ccc(O)cc12 [N-Acetylserotonin]
Mean Luminescence: 978.08
% Activity over baseline: 39.55%
% Activity relative to Rapamycin: 71.27%

CCN1C(=O)C=CC1=O [N-Ethylmaleimide (NEM)]
Mean Luminescence: 668.28
% Activity over baseline: 58.70%
% Activity relative to Rapamycin: 105.76%

CO[C@]12C[C@@H](COC(=O)c3cncc(Br)c3)CN(C)[C@@H]1Cc1cn(C)c3cccc2c13 [Nicergoline]
Mean Luminescence: 764.49
% Activity over baseline: 52.75%
% Activity relative to Rapamycin: 95.05%

CC(Cc1ccc(O)c(O)c1)C(C)Cc1ccc(O)c(O)c1 (stereo not drawn) [Nordihydroguaiaretic acid]
Mean Luminescence: 964.84
% Activity over baseline: 40.37%
% Activity relative to Rapamycin: 72.74%

CO[C@H]1C[C@H](O[C@H]2CC[C@@]3(C)[C@H](CC[C@@H]4[C@@H]3CC[C@]3(C)[C@@H](C5=CC(=O)OC5)[C@@H](OC(C)=O)C[C@]43O)C2)O[C@@H](C)[C@@H]1O [Oleandrin]
Mean Luminescence: 766.18
% Activity over baseline: 52.65%
% Activity relative to Rapamycin: 94.86%

C/C=C1/[C@H](O[C@@H]2O[C@H](CO)[C@@H](O)[C@H](O)[C@H]2O)OC=C(C(=O)OC)[C@H]1CC(=O)OCCc1ccc(O)c(O)c1 [Oleuropein]
Mean Luminescence: 843.32
% Activity over baseline: 47.88%
% Activity relative to Rapamycin: 86.27%

C[C@@H]1O[C@@H](O[C@H]2C[C@@H](O)[C@]3(CO)[C@H]4[C@H](O)C[C@]5(C)[C@@H](C6=CC(=O)OC6)CC[C@]5(O)[C@@H]4CC[C@]3(O)C2)[C@H](O)[C@H](O)[C@H]1O [Ouabain]
Mean Luminescence: 788.34
% Activity over baseline: 51.28%
% Activity relative to Rapamycin: 92.39%

CCN(CC)CC#CCOC(=O)C(O)(c1ccccc1)C1CCCCC1 (stereo not drawn) [Oxybutynin chloride]
Mean Luminescence: 882.87
% Activity over baseline: 45.44%
% Activity relative to Rapamycin: 81.87%

Oc1cc(O)cc(/C=C/c2ccc(O)cc2O)c1 [Oxyresveratrol]
Mean Luminescence: 403.74
% Activity over baseline: 75.05%
% Activity relative to Rapamycin: 135.22%

O=C1c2cccc3c2[C@H](CCC3)CN1[C@@H]1CN2CCC1CC2 [Palonosetron HCl]
Mean Luminescence: 915.97
% Activity over baseline: 43.39%
% Activity relative to Rapamycin: 78.18%

O=C(CCc1ccc(O)cc1)c1c(O)cc(O)cc1O [Phloretin]
Mean Luminescence: 912.42
% Activity over baseline: 43.61%
% Activity relative to Rapamycin: 78.58%

CCc1ccc(CCOc2ccc(CC3SC(=O)NC3=O)cc2)nc1 (stereo not drawn) [Pioglitazone]
Mean Luminescence: 847.16
% Activity over baseline: 47.65%
% Activity relative to Rapamycin: 85.84%

COc1cccc2c1C(=O)c1c(O)c3c(c(O)c1C2=O)C[C@@](O)(C(=O)CO)C[C@@H]3O[C@H]1C[C@H](N)[C@H](O[C@@H]2CCCCO2)[C@H](C)O1 [Pirarubicin]
Mean Luminescence: 978.32
% Activity over baseline: 39.54%
% Activity relative to Rapamycin: 71.24%

CC(=O)[C@H]1CC[C@H]2[C@@H]3CC=C4C[C@@H](O)CC[C@]4(C)[C@H]3CC[C@]12C [Pregnenolone]
Mean Luminescence: 870.09
% Activity over baseline: 46.23%
% Activity relative to Rapamycin: 83.29%

CCCNC(C)C(=O)Nc1ccccc1C (stereo not drawn) [Prilocaine]
Mean Luminescence: 905.23
% Activity over baseline: 44.06%
% Activity relative to Rapamycin: 79.38%

C[C@H](CC[C@@]1(O)O[C@H]2C[C@H]3[C@@H]4CC=C5C[C@@H](O[C@@H]6O[C@H](CO)[C@@H](O[C@@H]7O[C@@H](C)[C@H](O)[C@@H](O)[C@H]7O)[C@H](O)[C@H]6O[C@@H]6O[C@@H](C)[C@H](O)[C@@H](O)[C@H]6O)CC[C@]5(C)[C@H]4CC[C@]3(C)[C@H]2[C@@H]1C)CO[C@@H]1O[C@H](CO)[C@@H](O)[C@H](O)[C@H]1O [Protodioscin]
Mean Luminescence: 713.58
% Activity over baseline: 55.90%
% Activity relative to Rapamycin: 100.72%

Oc1ccccc1O [Pyrocatechol]
Mean Luminescence: 906.35
% Activity over baseline: 43.99%
% Activity relative to Rapamycin: 79.25%

Oc1cccc(O)c1O [Pyrogallol]
Mean Luminescence: 936.38
% Activity over baseline: 42.13%
% Activity relative to Rapamycin: 75.91%

CC(=O)CCc1ccc(O)cc1 [Raspberry ketone]
Mean Luminescence: 696.39
% Activity over baseline: 56.96%
% Activity relative to Rapamycin: 102.63%

COC(=O)[C@H]1[C@H]2C[C@@H]3c4[nH]c5cc(OC)ccc5c4CCN3C[C@H]2C[C@@H](OC(=O)c2cc(OC)c(OC)c(OC)c2)[C@@H]1OC [Reserpine hydrochloride]
Mean Luminescence: 810.13
% Activity over baseline: 49.93%
% Activity relative to Rapamycin: 89.97%

COC(=O)[C@H]1[C@H]2C[C@@H]3c4[nH]c5cc(OC)ccc5c4CCN3C[C@H]2C[C@@H](OC(=O)c2cc(OC)c(OC)c(OC)c2)[C@@H]1OC [Reserpine]
Mean Luminescence: 915.14
% Activity over baseline: 43.44%
% Activity relative to Rapamycin: 78.27%

CC[C@H]1CN2CC[C@]3(C(=O)Nc4ccccc43)[C@@H]2C[C@@H]1/C(=C\OC)C(=O)OC [Rhynchophylline]
Mean Luminescence: 953.80
% Activity over baseline: 41.05%
% Activity relative to Rapamycin: 73.97%

O[C@@H]1[C@@H](O)[C@H](OC/C=C/c2ccccc2)O[C@H](CO[C@@H]2OC[C@H](O)[C@H](O)[C@H]2O)[C@H]1O [Rosavin]
Mean Luminescence: 983.74
% Activity over baseline: 39.20%
% Activity relative to Rapamycin: 70.64%

C[C@H]1O[C@@H](O[C@H]2CC[C@@]3(C)[C@@H](CC[C@]4(C)[C@@H]3C=C[C@]35OC[C@@]6(CCC(C)(C)C[C@H]63)[C@@H](O)C[C@]54C)[C@]2(C)CO)[C@H](O)[C@@H](O[C@@H]2O[C@H](CO)[C@@H](O)[C@H](O)[C@H]2O)[C@H]1O [Saikosaponin A]
Mean Luminescence: 561.50
% Activity over baseline: 65.30%
% Activity relative to Rapamycin: 117.65%

CC[C@@H](C(=O)[C@@H](C)[C@@H](O)[C@H](C)[C@@H]1O[C@@H]([C@@H](CC)C(=O)O)CC[C@@H]1C)[C@H]1O[C@]2(C=C[C@@H](O)[C@]3(CC[C@@](C)([C@H]4CC[C@](O)(CC)[C@H](C)O4)O3)O2)[C@H](C)C[C@@H]1C [Salinomycin]
Mean Luminescence: 792.70
% Activity over baseline: 51.01%
% Activity relative to Rapamycin: 91.91%

CCOC(=O)NCCCC(=O)NCCc1ccccc1 [Santacruzamate A (CAY10683)]
Mean Luminescence: 972.04
% Activity over baseline: 39.93%
% Activity relative to Rapamycin: 71.94%

CN1[C@@H]2C[C@@H](OC(=O)[C@H](CO)c3ccccc3)C[C@H]1[C@@H]1O[C@@H]12 [Scopolamine hydrobromide]
Mean Luminescence: 937.62
% Activity over baseline: 42.05%
% Activity relative to Rapamycin: 75.77%

CC(C)=CCOc1ccc(/C=C/C(=O)c2ccc(OCC=C(C)C)cc2OCC(=O)O)cc1 [Sofalcone]
Mean Luminescence: 760.95
% Activity over baseline: 52.97%
% Activity relative to Rapamycin: 95.44%

CNC(=O)c1cc(Oc2ccc(NC(=O)Nc3ccc(Cl)c(C(F)(F)F)c3)cc2)ccn1 [Sorafenib]
Mean Luminescence: 932.25
% Activity over baseline: 42.39%
% Activity relative to Rapamycin: 76.37%

CN[C@@H]1[C@H](O)[C@H](NC)[C@H]2O[C@@]3(O)C(=O)C[C@@H](C)O[C@H]3O[C@@H]2[C@H]1O [Spectinomycin dihydrochloride]
Mean Luminescence: 953.21
% Activity over baseline: 41.09%
% Activity relative to Rapamycin: 74.04%

NCCCNCCCCNCCCN [Spermine]
Mean Luminescence: 720.40
% Activity over baseline: 55.48%
% Activity relative to Rapamycin: 99.96%

COc1cc(NS(=O)(=O)c2ccc(N)cc2)nc(OC)n1 [Sulfadimethoxine]
Mean Luminescence: 821.82
% Activity over baseline: 49.21%
% Activity relative to Rapamycin: 88.67%

COc1cc(C=O)cc(OC)c1O [Syringaldehyde]
Mean Luminescence: 896.55
% Activity over baseline: 44.59%
% Activity relative to Rapamycin: 80.34%

C=CC[C@@H]1/C=C(\C)C[C@H](C)C[C@H](OC)[C@H]2O[C@@](O)(C(=O)C(=O)N3CCCC[C@H]3C(=O)O[C@H](/C(C)=C/[C@@H]3CC[C@@H](O)[C@H](OC)C3)[C@H](C)[C@@H](O)CC1=O)[C@H](C)C[C@@H]2OC [Tacrolimus (FK506)]
Mean Luminescence: 512.17
% Activity over baseline: 68.35%
% Activity relative to Rapamycin: 123.15%

C/C=C(\C)C(=O)O [Tiglic acid]
Mean Luminescence: 947.74
% Activity over baseline: 41.43%
% Activity relative to Rapamycin: 74.64%

Clc1ccc(C(Cn2ccnc2)OCc2ccsc2Cl)c(Cl)c1 (stereo not drawn) [Tioconazole]
Mean Luminescence: 537.96
% Activity over baseline: 66.75%
% Activity relative to Rapamycin: 120.27%

NC[C@H]1O[C@H](O[C@H]2[C@H](O)[C@@H](O[C@H]3O[C@H](CO)[C@@H](O)[C@H](N)[C@H]3O)[C@H](N)C[C@@H]2N)[C@H](N)C[C@@H]1O [Tobramycin]
Mean Luminescence: 971.48
% Activity over baseline: 39.96%
% Activity relative to Rapamycin: 72.00%

CC1=C(/C=C/C(C)=C/C=C/C(C)=C/C(=O)O)C(C)(C)CCC1 [Tretinoin (Aberela)]
Mean Luminescence: 773.39
% Activity over baseline: 52.20%
% Activity relative to Rapamycin: 94.06%

Reference: patent publication US20250381110A1, “SKIN CARE COMPOSITION AND METHOD OF USING THE SAME” (THE PROCTER & GAMBLE COMPANY, priority 2024, published 2025)
